From patent publication US4446325A, “1,4-Dihydropyridine compounds” (priority 1981, dated 1984)

Columns and labels:
[1] = cited from earlier work
[2] = Stability to light (sun light, quartz dish, visual appearance); assay type: physicochemical; design: key to Change in appearance on light exposure: (-): No change
in vivo = settings: mouse, oral, ddy male mice, mortality one week after administration
femoral artery = experiment: Blood flow increasing activity in femoral artery of anesthetized dog (intravenous); assay type: in vivo; settings: i.v.
Procedure: (§1) A dog was anesthetized with pentobarital sodium at a dose of 30 mg/kg (intravenous injection) and, under artificial respiration, the blood flow in the coronary, vertebral and femoral arteries was determined using an electromagnetic blood-flow meter. The blood pressure was also measured simultaneously. The test compound was dissolved in ethanol at a concentration of 1% by weight of the compound and then diluted to a volume of 10 times with a 80% aqueous solution of polyethylene glycol 400. The resulting solution was further diluted with a 0.9% physiological saline solution and administered intravenously into the femoral vein at a dose shown in Tables 1 and 2.

coronary artery = experiment: Blood flow increasing activity in coronary artery of anesthetized dog (intravenous); assay type: in vivo; settings: i.v.
Procedure: as §1

vertebral artery = experiment: Blood flow increasing activity in vertebral artery of anesthetized dog (intravenous); assay type: in vivo; settings: i.v.
Procedure: as §1

[3] = background statement; cited from earlier work
[4] = system: enucleated heart of guinea-pig; experiment: Effect on heart systole, enucleated heart of guinea-pig (Langendorf method)
Procedure: (§2) The effects of the compounds of this invention on the heat systole and the perfusion volume in the coronary artery in enucleated heart of guinea-pig were determined in accordance with the Langendorf method.

[5] = system: coronary artery in enucleated heart of guinea-pig; experiment: Effect on perfusion volume in coronary artery, enucleated heart of guinea-pig (Langendorf method)
Procedure: as §2

blood pressure = experiment: Blood pressure measured simultaneously with blood flow in anesthetized dog; assay type: in vivo; settings: i.v.
Procedure: as §1

[6] = system: coronary, vertebral and femoral arteries; experiment: Blood flow increasing / vasodilating activity in coronary, vertebral and femoral arteries (overall statements); assay type: in vivo, dog; settings: Table 2
Procedure: as §1

[7] = exposure for a total of 8 hours
[8] = 3 mg/kg, Table 2 (separate test)

In the case of `CCOC(=O)C1=C(C)NC(C)=C(C(=O)OC2CCCCC2)C1c1cccc([N+](=O)[O-])c1` (stereo not drawn) [cyclohexyl ethyl 2,6-dimethyl-4-(3-nitrophenyl)-1,4-dihydropyridine-3,5-dicarboxylate], the “activities, reported” value ([1]; German OLS Nos. 2,117,571 and 2,117,573) is given as “weak activities”.
For `CCOC(=O)C1=C(C)NC(C)=C(C(=O)OCC2CC2)C1c1cccc([N+](=O)[O-])c1` (stereo not drawn) [Compound D, Cyclopropylmethyl ethyl 2,6-dimethyl-4-(3-nitrophenyl)-1,4-dihydropyridine-3,5-dicarboxylate], the “Change in appearance on light exposure” value ([2]; 5 min. sun light) was “(-)”, the “Change in appearance on light exposure” value ([2]; 1 hour sun light) was “(-)” and the “Change in appearance on light exposure” value ([2]; 2 hours sun light) was “(-)”. The “Change in appearance on light exposure” value ([2]; 3 hours sun light) was “(-)”, the “Change in appearance on light exposure” value ([2]; 8 hours sun light) was “(-)” and the “changes on light exposure” value [2, 7] was “did not show any changes”. The LD50 at 168 h (in vivo) was 2000 mg/kg, the “Duration of Activity, Femoral Artery” value (femoral artery; [8]) was 16 and the “Total Increase in Blood Flow, Femoral Artery” value (femoral artery; [8]) was 173 mL. For the same compound, the “Duration of Activity, Coronary Artery” value (coronary artery; [8]) was 32, the “Total Increase in Blood Flow, Coronary Artery” value (coronary artery; [8]) was 308 mL and the “Duration of Activity, Vertebral Artery” value (vertebral artery; [8]) was 17. For the same compound, the “Total Increase in Blood Flow, Vertebral Artery” value (vertebral artery; [8]) was 212 mL.
For `COC(=O)C1=C(C)NC(C)=C(C(=O)OC)C1c1ccccc1[N+](=O)[O-]` [Compound H, Dimethyl 2,6-dimethyl-4-(2-nitrophenyl)-1,4-dihydropyridine-3,5-dicarboxylate, reference compound], the side-effects [3] is listed as “still unsatisfactory”, the “Effects on Heart Systole: Duration of Effect” value ([4]; dose 1 × 10^-6 g) is listed as 14.5 min and the “Effects on Heart Systole: Duration of Effect” value ([4]; dose 1 × 10^-7 g) is listed as 2.9 min. For the same compound, the “Effects on Coronary Artery: Duration of Effect” value ([5]; dose 1 × 10^-6 g) was 21.3 min, the “Effects on Coronary Artery: Total Perfusion Volume” value ([5]; dose 1 × 10^-6 g) was 192.8 drops and the “Effects on Coronary Artery: Duration of Effect” value ([5]; dose 1 × 10^-7 g) was 17.2 min. The “Effects on Coronary Artery: Total Perfusion Volume” value ([5]; dose 1 × 10^-7 g) was 91.2 drops, the “Duration of Activity, Femoral Artery” value (femoral artery; 1 mg/kg, Table 1) was 6.0 and the “Total Increase in Blood Flow, Femoral Artery” value (femoral artery; 1 mg/kg, Table 1) was 34 mL. For the same compound, the “Duration of Activity, Femoral Artery” value (femoral artery; 3 mg/kg, Table 1) was 21.5, the “Total Increase in Blood Flow, Femoral Artery” value (femoral artery; 3 mg/kg, Table 1) was 618 mL and the “Duration of Activity, Femoral Artery” value (femoral artery; [8]) was 12. For the same compound, the “Total Increase in Blood Flow, Femoral Artery” value (femoral artery; [8]) was 119 mL, the “Duration of Activity, Femoral Artery” value (femoral artery; 10 mg/kg, Table 2) was 54 and the “Total Increase in Blood Flow, Femoral Artery” value (femoral artery; 10 mg/kg, Table 2) was 825 mL. For the same compound, the “Duration of Activity, Coronary Artery” value (coronary artery; 1 mg/kg, Table 1) was 3.9, the “Total Increase in Blood Flow, Coronary Artery” value (coronary artery; 1 mg/kg, Table 1) was 30 mL and the “Duration of Activity, Coronary Artery” value (coronary artery; 3 mg/kg, Table 1) was 9.3. For the same compound, the “Total Increase in Blood Flow, Coronary Artery” value (coronary artery; 3 mg/kg, Table 1) was 107 mL, the “Duration of Activity, Coronary Artery” value (coronary artery; [8]) was 11 and the “Total Increase in Blood Flow, Coronary Artery” value (coronary artery; [8]) was 146 mL. For the same compound, the “Duration of Activity, Coronary Artery” value (coronary artery; 10 mg/kg, Table 2) was 40, the “Total Increase in Blood Flow, Coronary Artery” value (coronary artery; 10 mg/kg, Table 2) was 536 mL and the “duration of vasodilating activity” value ([1]; background statement) was “still unsatisfactory”. For the same compound, the “blood pressure lowering activity” value (blood pressure) was “found to have a blood pressure lowering activity”, the “Duration of Activity, Vertebral Artery” value (vertebral artery; 1 mg/kg, Table 1) was 8.0 and the “Total Increase in Blood Flow, Vertebral Artery” value (vertebral artery; 1 mg/kg, Table 1) was 66 mL. For the same compound, the “Duration of Activity, Vertebral Artery” value (vertebral artery; 3 mg/kg, Table 1) was 16.0, the “Total Increase in Blood Flow, Vertebral Artery” value (vertebral artery; 3 mg/kg, Table 1) was 190 mL and the “Duration of Activity, Vertebral Artery” value (vertebral artery; [8]) was 15. The “Total Increase in Blood Flow, Vertebral Artery” value (vertebral artery; [8]) was 131 mL, the “Duration of Activity, Vertebral Artery” value (vertebral artery; 10 mg/kg, Table 2) was 46 and the “Total Increase in Blood Flow, Vertebral Artery” value (vertebral artery; 10 mg/kg, Table 2) was 640 mL.
With `COC(=O)C1=C(C)NC(C)=C(C(=O)OCC(C)C)C1c1ccccc1[N+](=O)[O-]` (stereo not drawn) [Compound F, Isobutyl methyl 2,6-dimethyl-4-(2-nitrophenyl)-1,4-dicarboxylate, reference compound] the “color changes on light exposure” value ([2]; 5 minutes' exposure) was “slight color changes”, the “changes on light exposure” value ([2]; after more than 5 minutes' exposure ("thereafter")) was “marked changes” and the LD50 at 168 h (in vivo) was 465 mg/kg. The “Duration of Activity, Femoral Artery” value (femoral artery; [8]) was 27, the “Total Increase in Blood Flow, Femoral Artery” value (femoral artery; [8]) was 365 mL and the “Duration of Activity, Femoral Artery” value (femoral artery; 10 mg/kg, Table 2) was 58. For the same compound, the “Total Increase in Blood Flow, Femoral Artery” value (femoral artery; 10 mg/kg, Table 2) was 874 mL, the “Duration of Activity, Coronary Artery” value (coronary artery; [8]) was 31 and the “Total Increase in Blood Flow, Coronary Artery” value (coronary artery; [8]) was 353 mL. The “Duration of Activity, Coronary Artery” value (coronary artery; 10 mg/kg, Table 2) was 55, the “Total Increase in Blood Flow, Coronary Artery” value (coronary artery; 10 mg/kg, Table 2) was 863 mL and the “Duration of Activity, Vertebral Artery” value (vertebral artery; [8]) was 34. The “Total Increase in Blood Flow, Vertebral Artery” value (vertebral artery; [8]) was 347 mL.
For `COC(=O)C1=C(C)NC(C)=C(C(=O)OCC2CC2)C1c1cccc([N+](=O)[O-])c1` (stereo not drawn) [Compound C, Cyclopropylmethyl methyl 2,6-dimethyl-4-(3-nitrophenyl)-1,4-dihydropyridine-3,5-dicarboxylate], the “Change in appearance on light exposure” value ([2]; 5 min. sun light) was “(-)”, the “Change in appearance on light exposure” value ([2]; 1 hour sun light) was “(-)” and the “Change in appearance on light exposure” value ([2]; 2 hours sun light) was “(-)”. The “Change in appearance on light exposure” value ([2]; 3 hours sun light) was “(-)”, the “Change in appearance on light exposure” value ([2]; 8 hours sun light) was “(-)” and the “changes on light exposure” value [2, 7] was “did not show any changes”. For the same compound, the LD50 at 168 h (in vivo) was 1450 mg/kg, the “Duration of Activity, Femoral Artery” value (femoral artery; [8]) was 26 and the “Total Increase in Blood Flow, Femoral Artery” value (femoral artery; [8]) was 367 mL. The “Duration of Activity, Femoral Artery” value (femoral artery; 10 mg/kg, Table 2) was 60, the “Total Increase in Blood Flow, Femoral Artery” value (femoral artery; 10 mg/kg, Table 2) was 811 mL and the “duration of vasodilation effect compared with Compound F” value [6] was “significantly higher”. For the same compound, the “vasodilation effect compared with Compound F” value [6] was “significantly higher”, the “Duration of Activity, Coronary Artery” value (coronary artery; [8]) was 49 and the “Total Increase in Blood Flow, Coronary Artery” value (coronary artery; [8]) was 580 mL. The “Duration of Activity, Coronary Artery” value (coronary artery; 10 mg/kg, Table 2) was 66, the “Total Increase in Blood Flow, Coronary Artery” value (coronary artery; 10 mg/kg, Table 2) was 2772 mL and the “Duration of Activity, Vertebral Artery” value (vertebral artery; [8]) was 37. The “Total Increase in Blood Flow, Vertebral Artery” value (vertebral artery; [8]) was 463 mL, the “Duration of Activity, Vertebral Artery” value (vertebral artery; 10 mg/kg, Table 2) was 78 and the “Total Increase in Blood Flow, Vertebral Artery” value (vertebral artery; 10 mg/kg, Table 2) was 1691 mL.
